# Like-named read-outs stand apart in the source and are kept apart here.
# Tests used:
# Format in all cases: in vivo
# [1] = system: melon aphids (Aphis gossypii Glover); assay: Mite/insect screen, MA; conditions: Aphis gossypii, percent mortality, read-out: MA RESULTS %
# Summary of the method: (§1)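 First, each compound was dissolved in an emulsifier-containing acetone/alcohol mixture and diluted with water. Next, leaves were sprayed until runoff and left to dry for an hour. For southern armyworm, two excised uninfested leaves went into a Petri dish with larvae; percent mortality followed standard exposure periods.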
# [2] = system: Puccinia recondita tritici (leaf rust); assay: Test 1 greenhouse foliar spray screen, leaf rust on wheat; conditions: for pest or weed control at 400 ppm: Puccinia recondita, foliar, Test 1, foliar spray on wheat, disease control rating at 400 ppm / 100 ppm; for LEAF RUST: disease control rating, foliar spray on wheat, 400 ppm (+++ at 100 ppm)
# [3] = system: Pyricularia oryzae (rice blast); assay: whole plant or invertebrate; conditions: for pest or weed control at 400 ppm: Pyricularia oryzae, foliar, read-out: RICE BLAST, Test 1, foliar spray on rice, disease control rating at 400 ppm / 100 ppm; for RICE BLAST: disease control rating, foliar spray on rice, 400 ppm (+++ at 100 ppm)
# [4] = system: Botrytis cinerea (gray mold); assay: Test 1 greenhouse foliar spray screen, gray mold on grape berries; conditions: for pest or weed control at 400 ppm: Botrytis cinerea, foliar, Test 1, spray on grape berries, disease control rating at 400 ppm / 100 ppm; for GRAY MOLD: disease control rating, spray on grape berries, 400 ppm (+++ at 100 ppm)
# [5] = system: southern armyworm (Spodopetra eridania Cramer); assay: Mite/insect screen, SAW; conditions: Spodoptera eridania, percent mortality, read-out: SAW RESULTS %
# Summary of the method: as §1
# [6] = system: Twospotted spider mites (Tetranychus urticae Koch); assay: Mite/insect screen, SM; conditions: Tetranychus urticae, percent mortality, read-out: SM RESULTS %
# Summary of the method: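 Read-out: percent mortality after standard exposure periods. Test solutions were water dilutions of compound dissolved in acetone/alcohol (50:50) with emulsifier blends; leaves were sprayed to runoff on both surfaces and air-dried for one hour before exposure.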
# [7] = system: Pseudoperonospora cubensis (downy mildew); assay: Test 1 greenhouse foliar spray screen, downy mildew on squash; conditions: for pest or weed control at 400 ppm: Pseudoperonospora cubensis, foliar, Test 1, foliar spray on squash, disease control rating at 400 ppm / 100 ppm, read-out: DOWN MDEW; for DOWN MDEW: disease control rating, foliar spray on squash, 400 ppm (+++ at 100 ppm)
# corn rootworm = assay: Mite/insect screen, CRW; conditions: percent mortality, read-out: CRW RESULTS %
# Summary of the method: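 Stock in acetone:alcohol 1:1 + TOXIMUL R 23 g/L + TOXIMUL S 13 g/L; diluted with water to indicated concentrations; mortality (%) after standard exposure.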
# [8] = system: Erysiphe graminis tritici (powdery mildew); assay: Test 1 greenhouse foliar spray screen, powdery mildew on wheat; conditions: for pest or weed control at 400 ppm: Blumeria graminis, foliar, Test 1, foliar spray on wheat, disease control rating at 400 ppm / 100 ppm, read-out: POWD MDEW; for POWD MDEW: disease control rating, foliar spray on wheat, 400 ppm (+++ at 100 ppm)
# [9] = foliar, rate 200 ppm, foliar spray on squash
# [10] = foliar, rate 400 ppm, foliar spray on squash
Compound,"mortality at 200 ppm [1, 9] [%]","mortality at 400 ppm [1, 10] [%]",pest or weed control at 400 ppm [2] [%],pest or weed control at 400 ppm [3] [%],pest or weed control at 400 ppm [4] [%],"mortality at 200 ppm [5, 9] [%]","mortality at 400 ppm [5, 10] [%]","mortality at 400 ppm [6, 10] [%]",pest or weed control at 400 ppm [7] [%],mortality at 24 ppm (corn rootworm; CRW rate 24.00 ppm) [%],pest or weed control at 400 ppm [8] [%],"mortality at 400 ppm ([1]; SAW, SM & MA RATE 400 PPM) [%]",LEAF RUST [2],RICE BLAST [3],GRAY MOLD [4],"mortality at 400 ppm ([5]; SAW, SM & MA RATE 400 PPM) [%]","mortality at 400 ppm ([6]; SAW, SM & MA RATE 400 PPM) [%]",DOWN MDEW [7],mortality at 24 ppm (corn rootworm; CRW RATE 24.00 PPM) [%],POWD MDEW [8],other results
"Clc1ccc(CCOc2ccnc3cc(Cl)ccc23)cc1 [Example 226, 7-chloro-4-[2-(4-chlorophenyl)ethoxy]quinoline]",0,0,20 to 89,0 to 19,0 to 19,0,0,0,20 to 89,0,20 to 89,,,,,,,,,,"mortality at 200 ppm [6, 9]: 0%; mortality at 12 ppm (corn rootworm; CRW rate 12.00 ppm): 0%"
"CC(=O)N(CCC1=CCCCC1)c1ccnc2c(C)ccc(C)c12 [Example 160, N-[2-(1-cyclohexenyl)ethyl]-N-(5,8-dimethyl-4-quinolinyl)acetamide]",,,,,,,,,,,,0,- (0-19% control at 400 ppm),+ (20-89% control at 400 ppm),- (0-19% control at 400 ppm),0,0,- (0-19% control at 400 ppm),0,- (0-19% control at 400 ppm),"mortality at 200 ppm ([1]; SAW, SM & MA RATE 200 PPM): 0%; mortality at 200 ppm ([5]; SAW, SM & MA RATE 200 PPM): 0%; mortality at 200 ppm ([6]; SAW, SM & MA RATE 200 PPM): 0%; mortality at 12 ppm (corn rootworm; CRW RATE 12.00 PPM): 0%"
"Fc1cccc2c(CCCc3ccc(-c4ccccc4)cc3)ccnc12 [Example 257, 4-[3-(1,1'-biphenyl)-4-ylpropyl]-8-fluoroquinoline]",,0,90 to 100,20 to 89,0 to 19,,0,0,90 to 100,0,90 to 100,,,,,,,,,,
"CC(=O)N(CCc1c(C)c(C)c(C)c(C)c1C)c1ccnc2c(F)cccc12 [Example 131, N-[2-(pentamethylphenyl)ethyl]-N-(8-fluoro-4-quinolinyl)acetamide]",,,,,,,,,,,,0,- (0-19% control at 400 ppm),- (0-19% control at 400 ppm),- (0-19% control at 400 ppm),0,0,+ (20-89% control at 400 ppm),0,- (0-19% control at 400 ppm),"mortality at 200 ppm ([1]; SAW, SM & MA RATE 200 PPM): 0%; mortality at 200 ppm ([5]; SAW, SM & MA RATE 200 PPM): 0%; mortality at 200 ppm ([6]; SAW, SM & MA RATE 200 PPM): 0%; mortality at 12 ppm (corn rootworm; CRW RATE 12.00 PPM): 0%"
"Clc1cccc2c(NCCc3cccc(Oc4ccccc4)c3)ccnc12 [Example 280, 8-chloro-N-[2-(3-phenoxyphenyl)ethyl]-4-quinolinamine]",0,0,90 to 100,90 to 100,0 to 19,60,0,0,90 to 100,0,90 to 100,,,,,,,,,,"mortality at 200 ppm [6, 9]: 0%; mortality at 12 ppm (corn rootworm; CRW rate 12.00 ppm): 0%"
"Cc1ccc(CCOc2cc(Cl)nc3c(F)cccc23)cc1 [Example 193, 2-chloro-8-fluoro-4-[2-(4-methylphenyl)ethoxy]quinoline]",0,0,20 to 89,0 to 19,0 to 19,0,0,0,0 to 19,0,0 to 19,,,,,,,,,,"mortality at 200 ppm [6, 9]: 0%; mortality at 12 ppm (corn rootworm; CRW rate 12.00 ppm): 0%"
"Cc1ccccc1CCOc1ccnc2c(F)cccc12 [Example 205, 8-fluoro-4-[2-(2-methylphenyl)ethoxy]quinoline]",,0,90 to 100,90 to 100,0 to 19,,0,0,90 to 100,0,90 to 100,,,,,,,,,,
"CC(C)(C)c1ccc(CCOc2ccnc3c(Br)cccc23)cc1 [Example 198, 8-bromo-4-[2-(4-(t-butyl)phenyl)ethoxy]quinoline]",,80,0 to 19,0 to 19,0 to 19,,0,90,0 to 19,0,0 to 19,,,,,,,,,,
"CC(=O)N(CCC1=CCCCC1)c1ccnc2ccc(F)cc12 [Example 146, N-[2-(1-cyclohexenyl)ethyl]-N-(6-fluoro-4-quinolinyl)acetamide]",,,,,,,,,,,,0,- (0-19% control at 400 ppm),- (0-19% control at 400 ppm),- (0-19% control at 400 ppm),0,0,+ (20-89% control at 400 ppm),0,- (0-19% control at 400 ppm),"mortality at 200 ppm ([1]; SAW, SM & MA RATE 200 PPM): 0%; mortality at 200 ppm ([5]; SAW, SM & MA RATE 200 PPM): 0%; mortality at 200 ppm ([6]; SAW, SM & MA RATE 200 PPM): 0%; mortality at 12 ppm (corn rootworm; CRW RATE 12.00 PPM): 0%"
"CC(CCc1ccccc1)Nc1ccnc2c(F)cccc12 (centres unmarked) [Example 138, 8-fluoro-N-(1-methyl-3-phenylpropyl)-4-quinolinamine]",,,,,,,,,,,,0,+ (20-89% control at 400 ppm),+ (20-89% control at 400 ppm),- (0-19% control at 400 ppm),0,0,+++ (90-100% control at 100 ppm),0,- (0-19% control at 400 ppm),
"CC(=O)N(CCc1ccc(-c2ccccc2)cc1)c1ccnc2c(F)cccc12 [Example 130, N-[2-(1,1'-biphenyl)-4-ylethyl]-N-(8-fluoro-4-quinolinyl)acetamide]",,,,,,,,,,,,0,- (0-19% control at 400 ppm),- (0-19% control at 400 ppm),- (0-19% control at 400 ppm),0,0,- (0-19% control at 400 ppm),0,- (0-19% control at 400 ppm),"mortality at 200 ppm ([1]; SAW, SM & MA RATE 200 PPM): 0%; mortality at 200 ppm ([5]; SAW, SM & MA RATE 200 PPM): 0%; mortality at 200 ppm ([6]; SAW, SM & MA RATE 200 PPM): 0%; mortality at 12 ppm (corn rootworm; CRW RATE 12.00 PPM): 0%"
"CC(CCOc1ccnc2c(F)cccc12)CC(C)(C)C (centres unmarked) [Example 274, 8-fluoro-4-(3,5,5-trimethylhexyloxy)quinoline]",100,100,90 to 100,90 to 100,0 to 19,0,0,0,20 to 89,0,90 to 100,,,,,,,,,,"mortality at 200 ppm [6, 9]: 100%; mortality at 12 ppm (corn rootworm; CRW rate 12.00 ppm): 0%"

# Reference: patent EP0326331B1, “Substituted quinolines and cinnolines” (Dow AgroSciences LLC, priority 1988, dated 1989)
